Experimental findings from US7435733B2, “Mineralocorticoid receptor modulator compounds and methods, and pharmaceutical compositions containing these compounds” (Ligand Pharmaceuticals, Inc., priority 2004, dated 2008) are described below.

The experiment addresses T1, human mineralocorticoid receptor protein (MR) (Homo sapiens, UniProt P08235).
T1 construct: made in house; host or cells: Spodoptera frugiperda Sf21 insect cells (baculovirus)
T1 sequence (P08235 1-984): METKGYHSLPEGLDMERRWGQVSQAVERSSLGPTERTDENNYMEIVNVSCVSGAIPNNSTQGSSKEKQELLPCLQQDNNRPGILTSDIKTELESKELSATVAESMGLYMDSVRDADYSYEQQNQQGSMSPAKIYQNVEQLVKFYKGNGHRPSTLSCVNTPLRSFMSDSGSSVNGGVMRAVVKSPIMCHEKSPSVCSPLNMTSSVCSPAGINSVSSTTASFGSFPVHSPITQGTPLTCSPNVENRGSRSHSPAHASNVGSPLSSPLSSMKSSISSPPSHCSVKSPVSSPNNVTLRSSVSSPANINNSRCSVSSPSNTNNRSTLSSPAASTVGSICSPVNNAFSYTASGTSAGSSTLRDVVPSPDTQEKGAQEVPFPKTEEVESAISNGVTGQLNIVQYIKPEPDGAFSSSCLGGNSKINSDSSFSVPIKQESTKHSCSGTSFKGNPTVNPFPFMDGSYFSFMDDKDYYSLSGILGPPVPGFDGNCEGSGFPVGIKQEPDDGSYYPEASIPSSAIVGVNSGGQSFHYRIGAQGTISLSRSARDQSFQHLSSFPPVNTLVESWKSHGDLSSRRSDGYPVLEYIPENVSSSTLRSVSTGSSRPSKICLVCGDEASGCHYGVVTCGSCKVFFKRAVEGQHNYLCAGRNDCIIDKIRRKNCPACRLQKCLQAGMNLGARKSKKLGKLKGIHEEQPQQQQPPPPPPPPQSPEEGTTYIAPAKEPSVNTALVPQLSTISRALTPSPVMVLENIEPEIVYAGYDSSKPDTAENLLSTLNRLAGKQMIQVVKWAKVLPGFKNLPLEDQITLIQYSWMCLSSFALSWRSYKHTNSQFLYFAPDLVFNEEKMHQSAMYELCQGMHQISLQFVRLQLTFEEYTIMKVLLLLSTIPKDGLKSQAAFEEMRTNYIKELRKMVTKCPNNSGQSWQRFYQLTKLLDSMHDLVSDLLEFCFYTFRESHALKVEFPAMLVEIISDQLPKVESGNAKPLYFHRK
In words: Mineralocorticoid receptor binding assay ([3H]aldosterone displacement, MR lysate). As to conditions: baculovirus-expressed MR lysate from Sf21 cells; 2-4 nM [3H]aldosterone; 16 hours at 4° C.; Cheng-Prusoff from IC50. On the procedure:
A baculovirus expression plasmid comprising cDNA encoding the human mineralocorticoid receptor protein (MR) was prepared using standard techniques. See e.g. E. A. Allegretto et. al. 268 J. Biol. Chem., 26625 (1993); G. Srinivasan and B. Thompson, 4 Mol. Endo., 209 (1990); and D. R. O'Reilly et. al., in “Baculovirus Expression Vectors”, D. R. O'Reilly et. al., eds., W.H. Freeman, New York, N.Y., pp. 139-179 (1992). That expression plasmid was co-transfected together with wild type Autographa californica multiple nuclear polyhedrosis virus DNA into Spodopter frugiperda-21 (Sf-21) cells to generate recombinant virus comprising MR cDNA. See e.g. O'Reilly, D. R., Miller, L. K., Luckow, V. A., Regulation of expression of a baculovirus ecdysteroid UDP glucosyltransferase gene. “Baculovirus Expression Vectors.” WH Freeman, N.Y., 139-179 (1992). […]
After incubation, 200 μl of 6.25% hydroxylapatite in assay buffer was added to each assay sample to precipitate the protein. […] Radioactivity in counts per minute (CPM) of each washed pellet was determined by liquid scintillation counter (MicroBeta™, Wallach).
Specific binding for a particular sample was calculated using the equation: (Sample CPM)−(Average Non-specific CPM) Average Non-specific CPM was defined as the amount of radioactivity from samples comprising an excess (i.e. 1000 nM) of unlabeled aldosterone. […]

By Ki is commonly meant a dissociation constant, usually derived from enzyme kinetics or from competition with a known ligand.

With `O=C1Nc2ccc(-c3cccc(C(F)(F)F)c3)c3c2C(CCC3)O1` (racemic) [Compound 101, (±)-7,8,9,9a-Tetrahydro-6-[(3-trifluoromethyl)phenyl]-3H-naphtho[1,8-de][1,3]oxazin-2-one], the inhibition constant Ki amounted to 335 nM.
As for `N#Cc1cccc(-c2ccc3c4c2CCCC4OC(=O)N3)c1` (racemic) [Compound 102, (±)-7,8,9,9a-Tetrahydro-6-(3-cyanophenyl)-3H-naphtho[1,8-de][1,3]oxazin-2-one], the Ki stood at 650 nM.
